Laboratory results taken from PubChem BioAssay AID1745844 (Carcinogenic Potency Database (CPDB), 2022).
Calls of active or inactive are those of the source. The rule behind the calls is not given here.

System: rodent lifetime carcinogenesis bioassay, tumor incidence TD50
Test: carcinogenic potency in animals, long-term in vivo studies, CPDB compilation (AID 1745844)

Compound: NN
- TD50 (hamster, strain Syrian Golden, males, inhaled, site: colon, lesion: adenocarcinoma, dosed 52 weeks, study length 104 weeks): 14 mg/kg/day
- TD50 (hamster, strain Syrian Golden, males, inhaled, site: colon, lesion: leiomyoma, dosed 52 weeks, study length 104 weeks): 70.5 mg/kg/day
- TD50 (hamster, strain Syrian Golden, males, inhaled, site: colon, lesion: papilloma, dosed 52 weeks, study length 104 weeks): 70.5 mg/kg/day
- TD50 (hamster, strain Syrian Golden, males, inhaled, site: nasal cavity, lesion: adenomatous polyp, dosed 52 weeks, study length 104 weeks): 4.16 mg/kg/day
- TD50 (hamster, strain Syrian Golden, males, inhaled, site: stomach, lesion: basal-cell carcinoma, dosed 52 weeks, study length 104 weeks): 37.6 mg/kg/day
- TD50 (hamster, strain Syrian Golden, males, inhaled, site: thyroid gland, lesion: parafollicular-cell adenoma, dosed 52 weeks, study length 104 weeks): 17.5 mg/kg/day
- TD50 (mouse, strain Bor:NMRI, SPF-bred NMRI, females, in drinking water, site: any site (literature study), lesion: benign tumor, dosed 104 weeks, study length 104 weeks): 58.5 mg/kg/day (inactive)
- carcinogen call (mouse, strain Bor:NMRI, SPF-bred NMRI, females, in drinking water, site: any site (literature study), lesion: malignant tumor, dosed 104 weeks, study length 104 weeks): negative (inactive)
- carcinogen call (mouse, strain Bor:NMRI, SPF-bred NMRI, males, in drinking water, site: any site (literature study), lesion: benign tumor, dosed 104 weeks, study length 104 weeks): negative (inactive)
- carcinogen call (mouse, strain Bor:NMRI, SPF-bred NMRI, males, in drinking water, site: any site (literature study), lesion: malignant tumor, dosed 104 weeks, study length 104 weeks): negative (inactive)
- TD50 (mouse, strain C57BL/6, females, inhaled, site: lung, lesion: adenoma, dosed 52 weeks, study length 117 weeks): 7.78 mg/kg/day
- TD50 (mouse, strain Swiss, females, by gavage, site: lung, lesion: one or several types, types not named, dosed 40 weeks, study length 55 weeks): 5.67 mg/kg/day
- TD50 (mouse, strain Swiss, females, in drinking water, site: lung, lesion: adenocarcinoma, dosed 113 weeks, study length 113 weeks): 9 mg/kg/day
- TD50 (mouse, strain Swiss, females, in drinking water, site: lung, lesion: adenoma, dosed 113 weeks, study length 113 weeks): 2.81 mg/kg/day
- TD50 (mouse, strain Swiss, females, in drinking water, site: lung, lesion: several types, types named in the paper, dosed 113 weeks, study length 113 weeks): 2.54 mg/kg/day
- TD50 (mouse, strain Swiss, males, in drinking water, site: all sites, lesion: malignant lymphoma, dosed 113 weeks, study length 113 weeks): 9.52 mg/kg/day
- TD50 (mouse, strain Swiss, males, in drinking water, site: liver, lesion: several types, types named in the paper, dosed 113 weeks, study length 113 weeks): 29.8 mg/kg/day
- TD50 (mouse, strain Swiss, males, in drinking water, site: lung, lesion: adenocarcinoma, dosed 113 weeks, study length 113 weeks): 6.19 mg/kg/day
- TD50 (mouse, strain Swiss, males, in drinking water, site: lung, lesion: adenoma, dosed 113 weeks, study length 113 weeks): 2.77 mg/kg/day
- TD50 (mouse, strain Swiss, males, in drinking water, site: lung, lesion: several types, types named in the paper, dosed 113 weeks, study length 113 weeks): 2.2 mg/kg/day
- TD50 (rat, strain Fischer 344, females, inhaled, site: lung, lesion: bronchiolar adenoma, dosed 52 weeks, study length 130 weeks): 26.4 mg/kg/day
- TD50 (rat, strain Fischer 344, females, inhaled, site: nasal cavity, lesion: adenocarcinoma, dosed 52 weeks, study length 130 weeks): 9.2 mg/kg/day
- TD50 (rat, strain Fischer 344, females, inhaled, site: nasal cavity, lesion: adenomatous polyp, dosed 52 weeks, study length 130 weeks): 0.758 mg/kg/day
- TD50 (rat, strain Fischer 344, females, inhaled, site: nasal cavity, lesion: squamous-cell carcinoma, dosed 52 weeks, study length 130 weeks): 13.1 mg/kg/day
- TD50 (rat, strain Fischer 344, females, inhaled, site: nasal cavity, lesion: squamous-cell papilloma, dosed 52 weeks, study length 130 weeks): 8.72 mg/kg/day
- TD50 (rat, strain Fischer 344, females, inhaled, site: nasal cavity, lesion: villous polyp, dosed 52 weeks, study length 130 weeks): 6.56 mg/kg/day
- TD50 (rat, strain Fischer 344, males, inhaled, site: lung, lesion: bronchiolar adenoma, dosed 52 weeks, study length 130 weeks): 6.1 mg/kg/day
- carcinogen call (rat, strain Fischer 344, males, inhaled, site: nasal cavity, lesion: adenocarcinoma, dosed 52 weeks, study length 130 weeks): positive
- TD50 (rat, strain Fischer 344, males, inhaled, site: nasal cavity, lesion: adenomatous polyp, dosed 52 weeks, study length 130 weeks): 0.194 mg/kg/day
- TD50 (rat, strain Fischer 344, males, inhaled, site: nasal cavity, lesion: squamous-cell carcinoma, dosed 52 weeks, study length 130 weeks): 6.12 mg/kg/day
- TD50 (rat, strain Fischer 344, males, inhaled, site: nasal cavity, lesion: squamous-cell papilloma, dosed 52 weeks, study length 130 weeks): 6.1 mg/kg/day
- TD50 (rat, strain Fischer 344, males, inhaled, site: nasal cavity, lesion: villous polyp, dosed 52 weeks, study length 130 weeks): 1.36 mg/kg/day
- TD50 (rat, strain Fischer 344, males, inhaled, site: thyroid gland, lesion: carcinoma, dosed 52 weeks, study length 130 weeks): 1.6 mg/kg/day
- TD50 (rat, strain Wistar, females, in drinking water, site: liver, lesion: hepatocellular carcinoma, dosed 157 weeks, study length 157 weeks): 129 mg/kg/day
- TD50 (rat, strain Wistar, females, in drinking water, site: liver, lesion: several types, types named in the paper, dosed 157 weeks, study length 157 weeks): 41.6 mg/kg/day
- TD50 (rat, strain Wistar, females, in drinking water, site: mammary gland, lesion: malignant tumor, dosed 157 weeks, study length 157 weeks): 1.13 mg/kg/day
- TD50 (rat, strain Wistar, males, in drinking water, site: any site (literature study), lesion: several types, types named in the paper, dosed 157 weeks, study length 157 weeks): 9.64 mg/kg/day
- TD50 (rat, strain Wistar, males, in drinking water, site: liver, lesion: several types, types named in the paper, dosed 157 weeks, study length 157 weeks): 43.7 mg/kg/day

Compound: O=CC(O)C(O)C(O)C(O)COC1OC(COC2OC(CO)C(O)C(O)C2O)C(O)C(O)C1O (configuration not stated)
- TD50 (rat, strain ACI, females, in feed, site: urinary bladder, lesion: one or several types, types not named, dosed 68 weeks, study length 68 weeks): 1640 mg/kg/day (inactive)
- TD50 (rat, strain ACI, males, in feed, site: urinary bladder, lesion: one or several types, types not named, dosed 68 weeks, study length 68 weeks): 3190 mg/kg/day (inactive)

Compound: CC[N+]([O-])=NC
- TD50 (rat, strain Fischer 344, males, in drinking water, site: colon, lesion: several types, types named in the paper, dosed 30 weeks, study length 55 weeks): 0.125 mg/kg/day
- TD50 (rat, strain Fischer 344, males, in drinking water, site: ileum, lesion: one or several types, types not named, dosed 30 weeks, study length 55 weeks): 0.221 mg/kg/day
- TD50 (rat, strain Fischer 344, males, in drinking water, site: liver, lesion: hemangiosarcoma, dosed 30 weeks, study length 55 weeks): 0.0391 mg/kg/day
- TD50 (rat, strain Fischer 344, males, in drinking water, site: liver, lesion: hepatocellular carcinoma, dosed 30 weeks, study length 55 weeks): 0.0189 mg/kg/day
- TD50 (rat, strain Fischer 344, males, in drinking water, site: liver, lesion: neurosarcoma, dosed 30 weeks, study length 55 weeks): 0.0832 mg/kg/day
- carcinogen call (rat, strain Fischer 344, males, in drinking water, site: liver, lesion: several types, types named in the paper, dosed 30 weeks, study length 55 weeks): positive

Compound: CCCCCCCCCCCCN=C(N)N
- carcinogen call (mouse, strain B6AKF1, females, oral dosing, site: any site (literature study), lesion: several types, types named in the paper, dosed 76 weeks, study length 76 weeks): negative (inactive)
- carcinogen call (mouse, strain B6AKF1, females, oral dosing, site: liver, lesion: hepatoma, dosed 76 weeks, study length 76 weeks): negative (inactive)
- carcinogen call (mouse, strain B6AKF1, females, oral dosing, site: lung, lesion: adenoma, dosed 76 weeks, study length 76 weeks): negative (inactive)
- TD50 (mouse, strain B6AKF1, males, oral dosing, site: any site (literature study), lesion: several types, types named in the paper, dosed 76 weeks, study length 76 weeks): 149 mg/kg/day (inactive)
- carcinogen call (mouse, strain B6AKF1, males, oral dosing, site: liver, lesion: hepatoma, dosed 76 weeks, study length 76 weeks): negative (inactive)
- TD50 (mouse, strain B6AKF1, males, oral dosing, site: lung, lesion: several types, types named in the paper, dosed 76 weeks, study length 76 weeks): 41.9 mg/kg/day (inactive)
- TD50 (mouse, strain B6C3F1, females, oral dosing, site: any site (literature study), lesion: several types, types named in the paper, dosed 76 weeks, study length 76 weeks): 54.7 mg/kg/day (inactive)
- TD50 (mouse, strain B6C3F1, females, oral dosing, site: liver, lesion: hepatoma, dosed 76 weeks, study length 76 weeks): 54.7 mg/kg/day (inactive)
- carcinogen call (mouse, strain B6C3F1, females, oral dosing, site: lung, lesion: several types, types named in the paper, dosed 76 weeks, study length 76 weeks): negative (inactive)
- TD50 (mouse, strain B6C3F1, males, oral dosing, site: any site (literature study), lesion: several types, types named in the paper, dosed 76 weeks, study length 76 weeks): 10.8 mg/kg/day (inactive)
- TD50 (mouse, strain B6C3F1, males, oral dosing, site: liver, lesion: hepatoma, dosed 76 weeks, study length 76 weeks): 19.4 mg/kg/day (inactive)
- TD50 (mouse, strain B6C3F1, males, oral dosing, site: lung, lesion: adenoma, dosed 76 weeks, study length 76 weeks): 30.1 mg/kg/day (inactive)

Compound: CS(=O)(=O)c1ccc([C@@H](O)[C@@H](CO)NC(=O)C(Cl)Cl)cc1
- TD50 (rat, strain F344/DuCrj, females, in drinking water, site: any site (literature study), lesion: one or several types, types not named, dosed 104 weeks, study length 108 weeks): 43.2 mg/kg/day (inactive)
- carcinogen call (rat, strain F344/DuCrj, females, in drinking water, site: liver, lesion: one or several types, types not named, dosed 104 weeks, study length 108 weeks): negative (inactive)
- carcinogen call (rat, strain F344/DuCrj, males, in drinking water, site: any site (literature study), lesion: one or several types, types not named, dosed 104 weeks, study length 108 weeks): negative (inactive)
- TD50 (rat, strain F344/DuCrj, males, in drinking water, site: liver, lesion: hepatocellular adenoma, dosed 104 weeks, study length 108 weeks): 683 mg/kg/day (inactive)

Compound: Clc1cccc(-c2cc(Cl)cc(Cl)c2)c1
- TD50 (rat, strain Sprague-Dawley, females, in feed, site: liver, lesion: hepatocellular adenoma, dosed 104 weeks, study length 104 weeks): 59.3 mg/kg/day
- TD50 (rat, strain Sprague-Dawley, females, in feed, site: liver, lesion: hepatocellular carcinoma, dosed 104 weeks, study length 104 weeks): 598 mg/kg/day
- TD50 (rat, strain Sprague-Dawley, females, in feed, site: liver, lesion: several types, types named in the paper, dosed 104 weeks, study length 104 weeks): 53.9 mg/kg/day
- TD50 (rat, strain Sprague-Dawley, males, in feed, site: liver, lesion: several types, types named in the paper, dosed 104 weeks, study length 104 weeks): 872 mg/kg/day

Compound: O=NN1CCCC[C@H]1c1cccnc1
- TD50 (rat, strain Chester Beatty albino, females, in drinking water, site: esophagus, lesion: benign tumor, dosed 73 weeks, study length 73 weeks): 17.7 mg/kg/day
- TD50 (rat, strain Chester Beatty albino, females, in drinking water, site: esophagus, lesion: several types, types named in the paper, dosed 73 weeks, study length 73 weeks): 12.9 mg/kg/day
- TD50 (rat, strain Chester Beatty albino, females, in drinking water, site: esophagus, lesion: squamous-cell carcinoma, dosed 73 weeks, study length 73 weeks): 413 mg/kg/day
- TD50 (rat, strain Chester Beatty albino, males, in drinking water, site: esophagus, lesion: benign tumor, dosed 73 weeks, study length 73 weeks): 28.1 mg/kg/day
- TD50 (rat, strain Chester Beatty albino, males, in drinking water, site: esophagus, lesion: several types, types named in the paper, dosed 73 weeks, study length 73 weeks): 11 mg/kg/day
- TD50 (rat, strain Chester Beatty albino, males, in drinking water, site: esophagus, lesion: squamous-cell carcinoma, dosed 73 weeks, study length 73 weeks): 86 mg/kg/day
